Measured values reported in patent US20200089110A1, “SULFONIC ACID DERIVATIVE COMPOUNDS AS PHOTOACID GENERATORS IN RESIST APPLICATIONS” (Heraeus Precious Metals North America Daychem LLC, priority 2015, published 2020).

Assays:
[1] = UV-Vis spectra of PAG compounds; type: physicochemical; conditions: for absorbance at i-line of a mercury lamp: compared with NIT (FIG. 4); for strong absorption band: 0.001% w/v (FIG. 4)
Experimental: FIG. 4 is a UV-Vis spectra of compounds NIT, D-1, and D-2 in PGMEA and D-4 in acetonitrile (0.001% w/v).
(§1) Photolysis of PAGs was carried out in acetonitrile in air at room temperature. The sodium salt of tetrabromophenol blue (TBPBNa), an acid indicator dye, which has a maximum absorption at 618 nm, was purchased from Aldrich (indicator grade) and used as received. Irradiation of the solution of the PAGs (3×10^−5 M) was performed using a Cole-Parmer UV 15 W bench lamp (EW-97605-50) at 365 nm. Light intensity was measured using an UV Power Puck II radiometer from EIT Inc. UV-Vis spectra were run on a Thermo Scientific Evolution 201 UV-visible spectrophotometer.

Solubility in PGMEA = type: physicochemical; conditions: in propylene glycol monomethyl ether acetate (PGMEA)
[2] = Photolysis of PAGs in acetonitrile under 365 nm irradiation (photoreactivity); type: physicochemical; conditions: for Solubility × Photoreactivity: product of solubility in PGMEA and relative photoreactivity at 365 nm
Source text: A photoresist composition typically comprises PAG, polymers, additives and solvents. The performance of a photoresist composition is mainly dependent on the properties of the PAG and polymer components. To formulate a high-performance photoresist composition, more photosensitive PAGs are typically selected. The photosensitivity of a PAG is typically directly related to the strength of the generated acid and the photoreactivity of the PAG. For a series of PAGs producing the same latent acid, their photosensitivity is related only to their photoreactivity. Thus evaluating the photosensitivity of a PAG can be achieved by studying its photoreactivity. The higher photoreactivity, the higher photosensitivity. The photoreactivity can be investigated by photolysis of a PAG in its dilute solution under low exposure intensity (to avoid side reactions which don't generate the desired acid). The change in the concentration of a PAG upon irradiation can be determined by measuring the absorbance of the PAG at the maximum absorption wavelength.
as §1
Photolysis of NIT, comparative compound A, D-1, and D-2 was examined in acetonitrile. The absorption band at 397 nm gradually decreases upon irradiation, indicating the progress of photoreaction with the increase of exposure dose of energy. Assuming the photoreaction is first-order, plot of natural log of changes in absorbance with exposure dose of energy gives the photoreaction constant of D-2 (i.e. the slope of the linear trendline) (FIG. 2). The photoreaction constants of other compounds were similarly determined under the same irradiation condition.
Comparing the constants of A, D-1, and D-2 with that of NIT normalized to one gives the relative photoreactivity (Table 7). The photoreactivity for PAG (e.g. D-2) according to the present disclosure is ˜8 times greater than that of NIT and ˜3 times greater than that of Comparative Compound A. The formation of acid upon irradiation was confirmed by observing the spectral changes of the acid indicator, TBPBNa at 618 nm.

| g-line absorbance ([1]; FIG. 4) | absorbance at i-line of a mercury lamp [1] | strong absorption band ([1]; in acetonitrile) | Solubility (w/w %) in PGMEA (Solubility in PGMEA) | Solubility × Photoreactivity [2] | melting point | strong absorption band ([1]; in PGMEA) | absorption band ([2]; in acetonitrile, band decreases upon irradiation (FIG. 1)) | SMILES |
| --- | --- | --- | --- | --- | --- | --- | --- | --- |
| large | much larger than that of NIT | 415 nm | – | – | – | – | – | CC(C)(C)Oc1ccc(/C=C/c2ccc3c4c(cccc24)C(=O)N(OS(=O)(=O)C(F)(F)F)C3=O)cc1 [Compound D-4] |
| – | – | – | 1.7% w/w % | 1.7% | – | – | – | O=C1c2cccc3cccc(c23)C(=O)N1OS(=O)(=O)C(F)(F)F [NIT, N-Hydroxynaphthalimide triflate, reference compound] |
| – | much larger than that of NIT | – | 1.6% w/w % | 13.1% | 182 to 184 °C | 397 nm | 397 nm | O=C1c2cccc3c(/C=C/c4ccccc4)ccc(c23)C(=O)N1OS(=O)(=O)C(F)(F)F [Compound D-2] |

The remaining lines, values behind:

| SMILES | g-line absorbance ([1]; FIG. 4) | absorbance at i-line of a mercury lamp [1] | strong absorption band ([1]; in acetonitrile) | Solubility (w/w %) in PGMEA (Solubility in PGMEA) | Solubility × Photoreactivity [2] | melting point | strong absorption band ([1]; in PGMEA) | absorption band ([2]; in acetonitrile, band decreases upon irradiation (FIG. 1)) |
| --- | --- | --- | --- | --- | --- | --- | --- | --- |
| O=C1c2cccc3c(C#Cc4ccccc4)ccc(c23)C(=O)N1OS(=O)(=O)C(F)(F)F [Comparative Compound A, reference compound] | – | – | – | 1.0% w/w % | 2.5% | – | – | – |
| CC(C)(C)c1ccc(/C=C/c2ccc3c4c(cccc24)C(=O)N(OS(=O)(=O)C(F)(F)F)C3=O)cc1 [Compound D-3] | – | – | – | – | – | 227 to 229 °C | – | – |
| CCCCOC(=O)/C=C/c1ccc2c3c(cccc13)C(=O)N(OS(=O)(=O)C(F)(F)F)C2=O [Compound D-1] | – | much larger than that of NIT | – | 6.9% w/w % | 12.4% | 151 to 152 °C | 363 nm | – |
| CCC(C)Oc1ccc(/C=C/c2ccc3c4c(cccc24)C(=O)N(OS(=O)(=O)C(F)(F)F)C3=O)cc1 (stereo not drawn) | – | – | – | 4.3% w/w % | 37.4% | – | – | – |
